The values that follow come from PMC6099540 (2018).

What is called ΔTm is the shift of the melting midpoint relative to a reference.

This assay concerns c-KIT 1 (DNA, G4) AGGGAGGGCGCTGGGAGGAGGG
The assay can be described thus: CD melting at 265 nm. As to conditions: 10 mM KCl, 90 mM LiCl; 10 mM Tris-HCl, pH 7.2; 2 µM DNA, 3 eq ligand; 1 °C/min.
On to `CCn1c2ccccc2c2cc(/C=C/c3sc4ccccc4[n+]3CC)ccc21`, for which the ΔTm was found to be 5.9 °C. In the case of `CC[n+]1c(/C=C/c2ccc3c(c2)c2ccccc2n3CCCCn2ccnc2)sc2ccccc21` it was 8.4 °C; in that of `CC[n+]1c(/C=C/c2ccc3c(c2)c2ccccc2n3CCCCn2cncn2)sc2ccccc21`, 5.4 °C.
